Reference: patent US20170028013A1 (Teva Pharmaceutical Industries, Ltd., priority 2015, published 2017)

Tests used:
[1] = Laq-Na dose incorporated in a clear GA product at increased amino acid concentration; type: physicochemical
Experimental: To 6.015 g of Solution C additional amounts of Laq-Na were added drop by drop at stirring at RT. The solutions obtained were clear at 2-8° C. and at RT at Laq-Na concentrations 1.28, 1.49, 1.75 mg/mL.

[2] = in vivo; cited from earlier work
[3] = Saturated solution of laquinimod acid in 0.1 M PBS; type: physicochemical; conditions: 0.1 M PBS pH 7.4, RT
Experimental: A saturated solution of laquinimod acid […] was prepared by dissolving of 4.2283 g of Laq-acid in 0.1 M PBS (pH 7.4, 700 mL) for 3.5 h at RT. After decantation of the suspension the clear upper part was filtered through a paper (Whatman) filter. This clear, filtered solution contained about 1.5 mg/mL of laquinimod acid (Solution A).

[4] = pH optimum for stability and solubility; type: physicochemical
From the text: Developing formulations containing laquinimod and GA is particularly difficult because laquinimod and GA have different pH optimums in terms of stability and solubility and because of undesired effects, mainly gelation or the formation of turbid formulations in the presence of various buffers, solvents and surface active agents.

[5] = tested on: acute experimental autoimmune encephalomyelitis (aEAE) model; conditions: in vivo; cited from earlier work
[6] = tested on: multiple sclerosis (MS); conditions: cited from earlier work

Molecule: CCN(C(=O)c1c(O)c2c(Cl)cccc2n(C)c1=O)c1ccccc1 [Laquinimod sodium]
- Laq-Na possible to incorporate ([1]; glycine 0.6 mg/mL): 1.05 to 1.07 mg/mL
- Laq-Na possible to incorporate ([1]; glycine 4.2 mg/mL): 1.51 mg/mL
- Laq-Na possible to incorporate ([1]; lysine 1.39 mg/mL): 1.06 to 1.09 mg/mL
- Laq-Na possible to incorporate ([1]; lysine 3.38 mg/mL): 1.88 mg/mL
- Laq-Na possible to incorporate ([1]; proline 0.9 mg/mL): 1.06 to 1.09 mg/mL
- Laq-Na possible to incorporate ([1]; proline 2.45 mg/mL): 1.55 mg/mL
- Oral bioavailability [2]: high

Molecule: CCN(C(=O)c1c(O)c2c(Cl)cccc2n(C)c1=O)c1ccccc1 [Laquinimod, N-ethyl-N-phenyl-1,2-dihydro-4-hydroxy-5-chloro-1-methyl-2-oxoquinoline-3-carboxamide]
- Laquinimod acid in the clear filtered saturated solution [3]: about 1.5 mg/mL
- Solubility and stability versus pH [4]: more soluble and stable in alkaline media
- Efficacy in aEAE model [5]: effective
- Development of active MRI lesions ([6]; relapsing MS): reduce development of active MRI lesions

Molecule: L-glutamic acid polymer with L-alanine, L-lysine and L-tyrosine, acetate (salt) [Glatiramer acetate]
- Relapse rates, progression of disability, new MRI lesions ([6]; daily subcutaneous injections, 20 mg/injection): reduce relapse rates
- Efficacy in treating multiple sclerosis ([6]; in vivo): effective
